Values after ≈ are worked out from the molar mass of the structure shown. A value given as a limit tells only on which side of the number the result lay.

One assay relates to Mannheimia haemolytica MH 6374 (ATCC 33396, reference strain). Put plainly: MIC, broth-microdilution (CLSI VET01-A4), strain MH 6374. Format: cell-based. The settings on record: Mannheimia haemolytica strain MH 6374, broth-microdilution; unit assumed. The procedure, abridged:
(§1)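 MIC recorded as the lowest drug level giving no growth visible to the naked eye, from two-fold serial dilutions. Interpretation followed VET01-S3.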
(In general: Broth dilution looks for growth in wells or tubes with falling amounts of substance.)
In turn, `CC(C)(O)[C@H](NC(=O)c1ccc(C#Cc2ccc(CNCc3cccnc3)s2)cc1)C(=O)NO` [Compound 296] gave an MIC MH 6374 of 0.2 µg/mL (≈ 0.418 µM).
In the case of `Cc1cnc(CNCc2ccc(C#Cc3ccc(C(=O)N[C@H](C(=O)NO)C(C)(C)S(C)(=O)=O)cc3)s2)o1` [Compound 323], the MIC MH 6374 came to 0.2 µg/mL (≈ 0.367 µM).
The same measure, in the same setting: the value for `CCCNCc1ccc(C#Cc2ccc(C(=O)N[C@H](C(=O)NO)C(C)(C)SC)cc2)cc1` [Compound 245] was 3.1 µg/mL (≈ 6.83 µM).

Another assay relates to Pasteurella multocida PM 6267 (P 2225 (L386), reference strain, mouse infection strain). The assay is described as follows: MIC, broth-microdilution (CLSI VET01-A4), strain PM 6267. The format is cell-based. The settings on record: Pasteurella multocida strain PM 6267, broth-microdilution; unit assumed. The gist of the method: as §1
`CC(C)(O)[C@H](NC(=O)c1ccc(C#Cc2ccc(CNCc3cccnc3)s2)cc1)C(=O)NO` [Compound 296] displayed an MIC PM 6267 of 0.8 µg/mL (≈ 1.67 µM).
`Cc1cnc(CNCc2ccc(C#Cc3ccc(C(=O)N[C@H](C(=O)NO)C(C)(C)S(C)(=O)=O)cc3)s2)o1` [Compound 323] returned an MIC PM 6267 of 0.2 µg/mL (≈ 0.367 µM).
On the same count and under the same terms, in the case of `CCCNCc1ccc(C#Cc2ccc(C(=O)N[C@H](C(=O)NO)C(C)(C)SC)cc2)cc1` [Compound 245] it was 0.4 µg/mL (≈ 0.882 µM).

Another assay has as its system Pasteurella multocida PM 10775 (080130003051, BRD field isolate). Put plainly: MIC, broth-microdilution (CLSI VET01-A4), strain PM 10775. Format: cell-based. The settings on record: Pasteurella multocida strain PM 10775, broth-microdilution; unit assumed. The procedure, abridged:
as §1
`CC(C)(O)[C@H](NC(=O)c1ccc(C#Cc2ccc(CNCc3cccnc3)s2)cc1)C(=O)NO` [Compound 296]: the MIC PM 10775 is at most 0.1 µg/mL.
On the same count and under the same terms, the value for `Cc1cnc(CNCc2ccc(C#Cc3ccc(C(=O)N[C@H](C(=O)NO)C(C)(C)S(C)(=O)=O)cc3)s2)o1` [Compound 323] was at most 0.1 µg/mL.
The same measure, in the same setting: the value for `CCCNCc1ccc(C#Cc2ccc(C(=O)N[C@H](C(=O)NO)C(C)(C)SC)cc2)cc1` [Compound 245] was at most 0.1 µg/mL.

The test system of a further assay is Pasteurella multocida PM 6391 (ATCC 43137, reference strain). The assay is described as follows: MIC, broth-microdilution (CLSI VET01-A4), strain PM 6391. Format: cell-based. The settings on record: Pasteurella multocida strain PM 6391, broth-microdilution; unit assumed. The gist of the method: as §1
Molecule `CC(C)(O)[C@H](NC(=O)c1ccc(C#Cc2ccc(CNCc3cccnc3)s2)cc1)C(=O)NO` [Compound 296] displayed an MIC PM 6391 of at most 0.1 µg/mL.
The same measure, in the same setting: in the case of `Cc1cnc(CNCc2ccc(C#Cc3ccc(C(=O)N[C@H](C(=O)NO)C(C)(C)S(C)(=O)=O)cc3)s2)o1` [Compound 323] it was at most 0.1 µg/mL; in that of `CCCNCc1ccc(C#Cc2ccc(C(=O)N[C@H](C(=O)NO)C(C)(C)SC)cc2)cc1` [Compound 245], 0.8 µg/mL (≈ 1.76 µM).

In another assay the test system is Mannheimia haemolytica MH 13065 (XB0446-6003.9, BRD field isolate). Put plainly: MIC, broth-microdilution (CLSI VET01-A4), strain MH 13065. The settings on record: Mannheimia haemolytica strain MH 13065, broth-microdilution; unit assumed. Format: cell-based. The procedure, abridged: as §1
On to `CC(C)(O)[C@H](NC(=O)c1ccc(C#Cc2ccc(CNCc3cccnc3)s2)cc1)C(=O)NO` [Compound 296], for which the MIC MH 13065 is at most 0.1 µg/mL.
Still for that read-out and setting: in the case of `Cc1cnc(CNCc2ccc(C#Cc3ccc(C(=O)N[C@H](C(=O)NO)C(C)(C)S(C)(=O)=O)cc3)s2)o1` [Compound 323] it was 0.4 µg/mL (≈ 0.734 µM).
Still for that read-out and setting: in the case of `CCCNCc1ccc(C#Cc2ccc(C(=O)N[C@H](C(=O)NO)C(C)(C)SC)cc2)cc1` [Compound 245] it was 1.6 µg/mL (≈ 3.53 µM).

The next assay has as its system Pasteurella multocida PM 12080 (IV102277-0093, BRD field isolate). The assay is described as follows: MIC, broth-microdilution (CLSI VET01-A4), strain PM 12080. The format is cell-based. The settings on record: Pasteurella multocida strain PM 12080, broth-microdilution; unit assumed. The procedure, abridged:
as §1
The molecule `CC(C)(O)[C@H](NC(=O)c1ccc(C#Cc2ccc(CNCc3cccnc3)s2)cc1)C(=O)NO` [Compound 296] returned an MIC PM 12080 of at most 0.1 µg/mL.
`Cc1cnc(CNCc2ccc(C#Cc3ccc(C(=O)N[C@H](C(=O)NO)C(C)(C)S(C)(=O)=O)cc3)s2)o1` [Compound 323] yielded an MIC PM 12080 of at most 0.1 µg/mL.
The same measure, in the same setting: the value for `CCCNCc1ccc(C#Cc2ccc(C(=O)N[C@H](C(=O)NO)C(C)(C)SC)cc2)cc1` [Compound 245] was 0.8 µg/mL (≈ 1.76 µM).

For another assay, the system named is Mannheimia haemolytica MH 6357 (M7/2, reference strain, cattle infection strain). Put plainly: MIC, broth-microdilution (CLSI VET01-A4), strain MH 6357. Format: cell-based. To be noted: Mannheimia haemolytica strain MH 6357, broth-microdilution; unit assumed. The gist of the method:
as §1
In turn, `CC(C)(O)[C@H](NC(=O)c1ccc(C#Cc2ccc(CNCc3cccnc3)s2)cc1)C(=O)NO` [Compound 296] gave an MIC MH 6357 of at most 0.1 µg/mL.
On the same count and under the same terms, the value for `Cc1cnc(CNCc2ccc(C#Cc3ccc(C(=O)N[C@H](C(=O)NO)C(C)(C)S(C)(=O)=O)cc3)s2)o1` [Compound 323] was 0.2 µg/mL (≈ 0.367 µM); that for `CCCNCc1ccc(C#Cc2ccc(C(=O)N[C@H](C(=O)NO)C(C)(C)SC)cc2)cc1` [Compound 245] was 3.1 µg/mL (≈ 6.83 µM).

Another assay relates to Mannheimia haemolytica MH 13093 (XB0472-6014.1, BRD field isolate). The assay is described as follows: MIC, broth-microdilution (CLSI VET01-A4), strain MH 13093. The format is cell-based. To be noted: Mannheimia haemolytica strain MH 13093, broth-microdilution; unit assumed. The procedure, abridged: as §1
As to `CC(C)(O)[C@H](NC(=O)c1ccc(C#Cc2ccc(CNCc3cccnc3)s2)cc1)C(=O)NO` [Compound 296], the MIC MH 13093 is 0.4 µg/mL (≈ 0.836 µM).
On the same count and under the same terms, the value for `Cc1cnc(CNCc2ccc(C#Cc3ccc(C(=O)N[C@H](C(=O)NO)C(C)(C)S(C)(=O)=O)cc3)s2)o1` [Compound 323] was 0.8 µg/mL (≈ 1.47 µM).
Still for that read-out and setting: in the case of `CCCNCc1ccc(C#Cc2ccc(C(=O)N[C@H](C(=O)NO)C(C)(C)SC)cc2)cc1` [Compound 245] it was 3.1 µg/mL (≈ 6.83 µM).

Another assay has as its system Mannheimia haemolytica MH 10720 (154, BRD field isolate). Put plainly: MIC, broth-microdilution (CLSI VET01-A4), strain MH 10720. The format is cell-based. The settings on record: Mannheimia haemolytica strain MH 10720, broth-microdilution; unit assumed. The gist of the method:
as §1
As to `CC(C)(O)[C@H](NC(=O)c1ccc(C#Cc2ccc(CNCc3cccnc3)s2)cc1)C(=O)NO` [Compound 296], the MIC MH 10720 was at most 0.1 µg/mL.
Still for that read-out and setting: in the case of `Cc1cnc(CNCc2ccc(C#Cc3ccc(C(=O)N[C@H](C(=O)NO)C(C)(C)S(C)(=O)=O)cc3)s2)o1` [Compound 323] it was at most 0.1 µg/mL; in that of `CCCNCc1ccc(C#Cc2ccc(C(=O)N[C@H](C(=O)NO)C(C)(C)SC)cc2)cc1` [Compound 245], 0.4 µg/mL (≈ 0.882 µM).

A further assay has as its system Mannheimia haemolytica MH 12587 (1071, BRD field isolate, macrolide-resistance: erm+, E+). Put plainly: MIC, broth-microdilution (CLSI VET01-A4), strain MH 12587. The format is cell-based. The settings on record: Mannheimia haemolytica strain MH 12587, broth-microdilution; unit assumed. The gist of the method: as §1
For the molecule `CC(C)(O)[C@H](NC(=O)c1ccc(C#Cc2ccc(CNCc3cccnc3)s2)cc1)C(=O)NO` [Compound 296], the MIC MH 12587 stood at 0.4 µg/mL (≈ 0.836 µM).
The molecule `Cc1cnc(CNCc2ccc(C#Cc3ccc(C(=O)N[C@H](C(=O)NO)C(C)(C)S(C)(=O)=O)cc3)s2)o1` [Compound 323] had an MIC MH 12587 of 0.8 µg/mL (≈ 1.47 µM).
For `CCCNCc1ccc(C#Cc2ccc(C(=O)N[C@H](C(=O)NO)C(C)(C)SC)cc2)cc1` [Compound 245], the MIC MH 12587 worked out at 3.1 µg/mL (≈ 6.83 µM).
